Experiments:
[1] = test system: normal NK cells expanded with K562-aAPC; assay: percent inhibition of viability; higher = more inhibition; settings: 72 h, IL-2 2.5 ng/mL
Procedure: (§1)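 Drug sensitivity and resistance testing on K562-aAPC-expanded normal NK cells: 5 concentrations (10-fold steps over a 10,000-fold range), 72 h at 37 °C, viability by CellTiter-Glo normalised to DMSO and benzethonium chloride controls; DSS from the fitted curve.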

NKL (IL-2 2.5 ng/mL) [2] = assay: drug sensitivity score (DSS) (DSS units); higher = more sensitive; extreme values may be limits of the assay; settings: 72 h
KHYG-1 (IL-2 2.5 ng/mL) [3] = assay: as above; settings: 72 h
DERL-7 (IL-2 2.5 ng/mL) [4] = assay: as above; settings: 72 h
SNK-6 (IL-2 2.5 ng/mL) [5] = assay: as above; settings: 72 h
KAI3 (IL-2 2.5 ng/mL) [6] = assay: as above; settings: 72 h
[7] = test system: normal primary NK cells, pool 1 (3 donors) (IL-2 2.5 ng/mL); assay: as above; settings: 72 h
[8] = test system: normal primary NK cells, pool 2 (3 donors) (IL-2 2.5 ng/mL); assay: as above; settings: 72 h
[9] = test system: normal primary NK cells, pool 3 (3 donors) (IL-2 2.5 ng/mL); assay: as above; settings: 72 h
NK-92 (IL-2 2.5 ng/mL) [10] = assay: as above; settings: 72 h
YT (IL-2 2.5 ng/mL) [11] = assay: as above; settings: 72 h
NK-YS (IL-2 2.5 ng/mL) [12] = assay: as above; settings: 72 h
[13] = test system: normal primary NK cells, pool 1 (3 donors), resting (IL-2 0 ng/mL); assay: as above; settings: 72 h
IMC-1 (IL-2 20 ng/mL) [14] = assay: as above; settings: 72 h
[15] = test system: normal NK cells expanded with K562-aAPC; assay: as above; settings: 72 h; IL-2 2.5 ng/mL
Procedure: as §1

NKL (IL-2 2.5 ng/mL) [16] = assay: percent inhibition of viability; higher = more inhibition; settings: 72 h
KHYG-1 (IL-2 2.5 ng/mL) [17] = assay: as above; settings: 72 h
DERL-7 (IL-2 2.5 ng/mL) [18] = assay: as above; settings: 72 h
SNK-6 (IL-2 2.5 ng/mL) [19] = assay: as above; settings: 72 h
KAI3 (IL-2 2.5 ng/mL) [20] = assay: as above; settings: 72 h
[21] = test system: normal primary NK cells, pool 1 (3 donors) (IL-2 2.5 ng/mL); assay: as above; settings: 72 h
[22] = test system: normal primary NK cells, pool 2 (3 donors) (IL-2 2.5 ng/mL); assay: as above; settings: 72 h
[23] = test system: normal primary NK cells, pool 3 (3 donors) (IL-2 2.5 ng/mL); assay: as above; settings: 72 h
NK-92 (IL-2 2.5 ng/mL) [24] = assay: as above; settings: 72 h
YT (IL-2 2.5 ng/mL) [25] = assay: as above; settings: 72 h
NK-YS (IL-2 2.5 ng/mL) [26] = assay: as above; settings: 72 h
[27] = test system: normal primary NK cells, pool 1 (3 donors), resting (IL-2 0 ng/mL); assay: as above; settings: 72 h
IMC-1 (IL-2 20 ng/mL) [28] = assay: as above; settings: 72 h

Cn1ncnc1[C@H]1c2n[nH]c(=O)c3cc(F)cc(c23)N[C@@H]1c1ccc(F)cc1 [Talazoparib] (max concentration tested 1000 nM)
percent inhibition of viability [%]
Settings | 0.1 nM | 1 nM | 10 nM | 100 nM | 1000 nM
DERL-7 (IL-2 2.5 ng/mL) [18] | 4.61 | 7.22 | 13.7 | 21.3 | 37.8
IMC-1 (IL-2 20 ng/mL) [28] | -4.58 | -1.47 | 11.2 | 18.6 | 78.1
KAI3 (IL-2 2.5 ng/mL) [20] | 3.2 | 10.3 | 25.1 | 48.3 | 74.7
KHYG-1 (IL-2 2.5 ng/mL) [17] | 0.2 | -0.57 | 14.9 | 31.4 | 71.2
NK-92 (IL-2 2.5 ng/mL) [24] | 15.4 | 8.78 | 27.8 | 36.7 | 87.8
NK-YS (IL-2 2.5 ng/mL) [26] | -2.27 | -0.36 | 27.9 | 81.3 | 96.2
NKL (IL-2 2.5 ng/mL) [16] | -2.21 | 28.1 | 72 | 84.1 | 88.6
SNK-6 (IL-2 2.5 ng/mL) [19] | 1.83 | 6.37 | 16.4 | 33.1 | 90.8
YT (IL-2 2.5 ng/mL) [25] | -2.25 | 0.5 | 0.86 | -5.82 | -1.36
[1] | 2.07 | 3.56 | 9.75 | 17.4 | 45.1
[21] | 7.55 | -5.65 | 4.49 | -2.17 | -1.39
[22] | -10.4 | 6.14 | 1.12 | 1.32 | 21.5
[23] | -7.78 | -0.35 | 2.46 | 5.72 | 21.3
[27] | 10.7 | -5.43 | -1.52 | -18.5 | 4.03

Settings | drug sensitivity score
DERL-7 (IL-2 2.5 ng/mL) [4] | 5.22
IMC-1 (IL-2 20 ng/mL) [14] | 7.06
KAI3 (IL-2 2.5 ng/mL) [6] | 12.7
KHYG-1 (IL-2 2.5 ng/mL) [3] | 7.93
NK-92 (IL-2 2.5 ng/mL) [10] | 12
NK-YS (IL-2 2.5 ng/mL) [12] | 18.4
NKL (IL-2 2.5 ng/mL) [2] | 27.7
SNK-6 (IL-2 2.5 ng/mL) [5] | 8.8
YT (IL-2 2.5 ng/mL) [11] | 0
[7] | 0
[8] | 0.86
[9] | 1.31
[13] | 0
[15] | 4.21

From the supplement of paper PMC5908809
